SMILES strings stand for the structures. Structures can show the parent of a compound that is named as a salt. Calls of active or inactive are those of the source. Bounds are passed on as bounds.

The nature of assay [1]: Luminescence Cell-Based Dose Confirmation HTS to Identify Activators of 5'UTR Stem-Loop Driven Alpha-Synuclein mRNA Translation in H4 Neuroglioblastoma Cells. [Related pubchem assays: 1829 (Project Summary), 1814 (Primary HTS)]. It counts as functional.
In assay [2] the test system is H4. Put plainly: Luminescence Cell-Based Dose Response HTS to Identify Activators of 5'UTR Stem-Loop Driven Prion Protein mRNA Translation in H4 Neuroglioblastoma Cells. [Related pubchem assays: 1829 (Project Summary), 1814 (Primary HTS)]. It counts as functional. The following applies: Homo sapiens.
Assay [3] can be described thus: Luminescence Cell-Based Dose Response HTS to Identify Activators of Luciferase Translation or Activity in H4 […] Cells. [Related pubchem assays: 1829 (Project Summary), 1814 (Primary HTS)]. It counts as functional.
In assay [4] the target is T1, Heat shock factor protein 1 (Mus musculus, UniProt P38532).
T1 sequence (P38532 whole entry): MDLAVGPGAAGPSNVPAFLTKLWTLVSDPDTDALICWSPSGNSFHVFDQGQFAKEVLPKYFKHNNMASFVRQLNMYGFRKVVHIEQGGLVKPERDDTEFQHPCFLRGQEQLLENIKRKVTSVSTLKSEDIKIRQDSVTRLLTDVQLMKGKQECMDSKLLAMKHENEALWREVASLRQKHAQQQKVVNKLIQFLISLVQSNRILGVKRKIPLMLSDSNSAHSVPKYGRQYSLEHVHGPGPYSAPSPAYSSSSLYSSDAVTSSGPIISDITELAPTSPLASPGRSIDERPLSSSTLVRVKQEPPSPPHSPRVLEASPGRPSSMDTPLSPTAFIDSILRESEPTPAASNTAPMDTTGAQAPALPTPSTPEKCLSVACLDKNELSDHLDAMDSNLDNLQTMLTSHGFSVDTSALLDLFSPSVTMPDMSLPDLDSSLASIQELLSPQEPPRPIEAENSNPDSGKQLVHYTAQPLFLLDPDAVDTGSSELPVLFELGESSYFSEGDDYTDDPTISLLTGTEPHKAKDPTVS
Put plainly: decrease of HSF1-responsive luciferase luminescence – cell-based, NIH3T3, dose retest, confirmation (AID 2382).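 Further: NIH3T3 fibroblasts with HSF1-driven luciferase reporter stressed by proteasome inhibitor MG132; luminescence from HSF1-driven luciferase expression after 8 hours of MG132 stress.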 It counts as functional.

In assay [5] the target is T2, Rac GTPase-activating protein 1 (Homo sapiens, UniProt Q9H0H5).
T2 sequence (Q9H0H5 whole entry): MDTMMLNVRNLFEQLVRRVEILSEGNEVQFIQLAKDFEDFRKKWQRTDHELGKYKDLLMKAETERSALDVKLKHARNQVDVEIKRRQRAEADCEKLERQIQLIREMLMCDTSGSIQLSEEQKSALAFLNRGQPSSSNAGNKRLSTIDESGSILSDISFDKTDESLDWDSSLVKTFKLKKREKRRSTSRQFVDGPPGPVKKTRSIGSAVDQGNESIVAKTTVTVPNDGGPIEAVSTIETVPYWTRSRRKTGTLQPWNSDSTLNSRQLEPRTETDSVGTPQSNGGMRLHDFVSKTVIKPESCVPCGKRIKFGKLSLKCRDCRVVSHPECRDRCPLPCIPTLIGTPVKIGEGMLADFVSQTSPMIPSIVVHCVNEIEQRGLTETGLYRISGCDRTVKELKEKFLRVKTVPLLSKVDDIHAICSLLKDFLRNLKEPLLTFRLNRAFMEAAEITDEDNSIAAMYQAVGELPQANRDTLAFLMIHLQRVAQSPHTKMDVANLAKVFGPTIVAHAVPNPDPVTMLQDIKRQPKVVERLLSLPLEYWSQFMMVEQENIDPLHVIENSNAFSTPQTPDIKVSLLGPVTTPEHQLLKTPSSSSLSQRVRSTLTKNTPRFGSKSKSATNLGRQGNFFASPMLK
Put plainly: blockers of MgcRacGAP-driven Rac1 GTP hydrolysis – biochemical, ADP Hunter fluorescence, primary and confirmatory, confirmation (AID 624330). It counts as functional.

The target of assay [6] is T1, Heat shock factor protein 1. Put plainly: enhancement of HSF1-driven luciferase signal – cell-based, NIH3T3, luminescence, dose retest, confirmation (AID 435004).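 Further: stress induced by proteasome inhibitor MG132 added 30 min after compound; luciferase reporter driven by HSF1 response element in NIH3T3 cells; actives raise luminescence as potentiators of the MG132 stress response.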 It counts as functional.
The target in assay [7] is T3, Ubiquitin-conjugating enzyme E2 N (Homo sapiens, UniProt P61088).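 Further: Dose-response confirmation in a TR-FRET assay detecting UBC13-driven polyubiquitin chain formation, inhibition measured.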
T3 sequence (P61088 whole entry): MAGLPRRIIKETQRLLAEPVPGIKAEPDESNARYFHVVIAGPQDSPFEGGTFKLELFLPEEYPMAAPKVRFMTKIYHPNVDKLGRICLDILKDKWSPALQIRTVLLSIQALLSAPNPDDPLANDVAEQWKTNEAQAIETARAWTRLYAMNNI
It counts as functional.

A short description of assay [8]: reduction of Shn3 3'UTR-driven luciferase in osteoblasts – cell-based, Clone20 osteoblasts, firefly luciferase, cherry-picked, dose response (AID 624132).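 Further: firefly luciferase luminescence from reporter carrying the Shn3 3'UTR in osteoblasts.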 It counts as functional.
The nature of assay [9]: non-specific 3'UTR reporter inhibition in Clone20-Shn3RL – cell-based, Renilla luciferase, cherry-picked, counter-screen for Shn3 inhibitor project, dose response (AID 624133). It counts as functional. (In general: A counterscreen serves to expose hits that act by an unwanted route or on another target.)
Assay [10] concerns the target T4, Cytochrome P450 1A2 (Homo sapiens, UniProt P05177).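 Further: PubChem cytochrome P450 panel assay, CYP1A2 panel member.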
T4 sequence (P05177 whole entry): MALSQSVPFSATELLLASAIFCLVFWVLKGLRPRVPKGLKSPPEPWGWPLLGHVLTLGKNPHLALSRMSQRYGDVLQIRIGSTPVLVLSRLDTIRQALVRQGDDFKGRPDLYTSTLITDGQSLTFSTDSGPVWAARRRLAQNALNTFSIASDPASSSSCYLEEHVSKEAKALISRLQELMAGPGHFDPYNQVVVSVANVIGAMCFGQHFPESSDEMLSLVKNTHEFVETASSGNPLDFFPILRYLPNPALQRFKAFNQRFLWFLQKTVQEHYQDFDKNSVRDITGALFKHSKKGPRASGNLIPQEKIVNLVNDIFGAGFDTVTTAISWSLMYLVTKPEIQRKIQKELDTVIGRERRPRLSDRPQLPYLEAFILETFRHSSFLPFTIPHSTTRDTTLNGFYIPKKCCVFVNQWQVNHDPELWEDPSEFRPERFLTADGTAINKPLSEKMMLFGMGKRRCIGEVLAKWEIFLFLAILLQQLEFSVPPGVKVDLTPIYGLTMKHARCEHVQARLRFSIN

In assay [11] the target is Cytochrome P450 3A4 (Homo sapiens, UniProt P08684).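 Further: CYP3A4 tested as one member of a cytochrome P450 panel screen.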
Sequence of Cytochrome P450 3A4 (P08684 whole entry): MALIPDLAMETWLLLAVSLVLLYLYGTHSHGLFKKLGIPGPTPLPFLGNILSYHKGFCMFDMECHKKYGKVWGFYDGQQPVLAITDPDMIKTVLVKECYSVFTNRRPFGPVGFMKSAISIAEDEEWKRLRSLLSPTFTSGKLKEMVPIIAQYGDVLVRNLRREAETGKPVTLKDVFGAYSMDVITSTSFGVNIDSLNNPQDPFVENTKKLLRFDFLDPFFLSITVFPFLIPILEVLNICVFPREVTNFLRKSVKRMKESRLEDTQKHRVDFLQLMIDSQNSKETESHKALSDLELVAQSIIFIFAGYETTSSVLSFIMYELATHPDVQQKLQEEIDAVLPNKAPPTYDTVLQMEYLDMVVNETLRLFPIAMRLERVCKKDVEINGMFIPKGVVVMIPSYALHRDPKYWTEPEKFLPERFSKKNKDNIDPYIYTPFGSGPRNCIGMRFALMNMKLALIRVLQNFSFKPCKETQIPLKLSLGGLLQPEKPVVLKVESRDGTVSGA

As for `COc1ccc([C@@H]2[C@@H]3C(=O)N(C(C)(C)C)C(=O)[C@@H]3[C@]3(Cc4ccccc4)C(=O)N(c4cccc(C)c4)C(=O)N23)cc1`, the EC50 in assay [1], in assay [2] and in [3] was > 120 µM (not active) in each case.
On to `Cc1ccc2c(c1)c1cccc3c1n2CCN3CCC(N)=O`, for which the EC50 was 1.71 µM (active) in assay [1], 9.21 µM (active) in assay [2] and > 120 µM (not active) in assay [3].
Take `Cc1ccc(NC(=O)CN(C)C2CCCCC2)cc1Cl`: the EC50 in assay [4] is reported as > 195 µM (not active). Besides, the half-maximal inhibitory concentration (IC50) in [5] is 152 µM (active).
For `O=C(Cc1ccccc1)Nc1cc(Cl)ccc1Sc1ccccc1`, the EC50 in assay [6] was > 260 µM (inactive).
`O=[N+]([O-])c1c(-c2cn[nH]c2)n[nH]c1-c1cn[nH]c1`: the IC50 in assay [7] is > 20 µM (inactive).
On to `CC(C)(C)c1cc(-n2ccnc2)n2ncc(-c3ccc(Cl)cc3)c2n1`, for which the EC50 in [1] was > 120 µM (not active); in [2] it was 78.9 µM (active); in assay [3], 13.7 µM (active).
In the case of `CCOc1ccc(NC(=O)C2CC(=O)N3CCCN=C3S2)cc1` (centres undefined), the EC50 in [6] is > 260 µM (inactive).
On to `CCc1ccc(NC(=O)c2cnc3scc(C)n3c2=O)cc1`, for which the 50% effective concentration (EC50) in assay [1] was 9.98 µM (active); in assay [2], 12.6 µM (active); in assay [3], 17.6 µM (active).
As to `CCOc1ccc(NC(=O)c2cccc3ccccc23)cc1`, the EC50 in assay [1] was 72.3 µM (active); in assay [2], > 120 µM (not active); in assay [3] it was 11.5 µM (active).
`CC(=O)Nc1ccc(S(=O)(=O)N2CCN(CC(O)COc3ccc4ccccc4c3)CC2)cc1` (centres undefined): in [7], the IC50 is > 20 µM (inactive).
With `COc1cccc(CNc2ccc([N+](=O)[O-])cc2Cl)c1O`, the EC50 in assay [6] is 163 µM (active).
`CSc1ccc(N2C(=O)NC3(CCCCC3)C2=O)cc1`: the EC50 is 20.4 µM (active) in assay [1], 19.7 µM (active) in assay [2] and 96.3 µM (active) in assay [3].
Regarding `COc1ccc([C@H]2CC(=O)C=C(c3ccc4c(c3)OCO4)C2)cc1OC`, the AC50 in [8] is 58.3 µM (active); in assay [9], 28.9 µM (active).
For `COc1cc(/C=N/N2CCN(C3c4ccccc4-c4ccccc43)CC2)cc(OC)c1OC`, the EC50 in [6] was > 260 µM (inactive).
The same measure, in the same setting: in the case of `CCOC(=O)c1c(N2C(=O)C3C4C=CC(O4)C3C2=O)sc2c1CCCC2` (centres undefined) it was > 260 µM (inactive).
As for `CC1=CC(C)=Nc2cc(C)ccc2N1`, the EC50 in assay [1] is 33.3 µM (active); in assay [2] it was 41.1 µM (active); in assay [3], > 60 µM (not active).
For `COCCCNC(=O)c1ccc(NS(C)(=O)=O)cc1`, the EC50 in assay [6] was > 260 µM (inactive).
Consider `NS(=O)(=O)c1ccc(CCNC(=O)c2ccc([N+](=O)[O-])s2)cc1`, for which the concentration for a half-maximal effect (EC50) in assay [6] is 15.7 µM (active).
The same measure, in the same setting: the value for `NC(CSCc1cccc(Br)c1)C(=O)O` (centres undefined) was > 260 µM (inactive); that for `Cc1ccc(SCCCCN2CCOCC2)cc1` was > 260 µM (inactive).
On the same count and under the same terms, in the case of `O=C(CCS(=O)(=O)c1ccccc1)Nc1ccccn1` it was > 260 µM (inactive).
`O=C(CSCc1ccccc1)Nc1ccc2c(c1)OCO2`: the EC50 in assay [1] is 26 µM (active); in [2], 18.6 µM (active); in assay [3] it was 2.27 µM (inconclusive).
`COc1ccccc1NC(=O)[C@H](COCc1ccccc1)NC(=O)OC(C)(C)C`: the AC50 was 25.1 µM (inconclusive) in [10] and 39.8 µM (inconclusive) in [11]. The concentration giving a half-maximal response (EC50) in assay [4] is > 195 µM (not active).
For the compound `CN1CCCC(CC2c3ccccc3Sc3ccccc32)C1` (centres undefined) [METHIXENE HYDROCHLORIDE], the IC50 in [7] is > 20 µM (inactive).

By EC50 is commonly meant the concentration that produces a half-maximal response. For orientation: IC50 means the point on the concentration scale where inhibition reaches its midpoint. What is called AC50 is the midpoint of the concentration-response curve, whichever way the signal moves.

(Values after ChEMBL document CHEMBL1201862, “PubChem BioAssay data set” (2004).)
